Results as given in patent US5169963A, “Di-(5-hydroxy-2(5H)2-oxo-4-furyl)alkylmethyl-alpha,omega alkanedioates and N,N-bis-(5-hydroxy-2(5H)2-oxo-4-furyl)alkylmethyl-alpha,omega-dialkanoic acid amides as anti-inflammatory agents” (Allergan, Inc., priority 1991, dated 1992).

Columns and labels:
[1] = molecular target: phosphoinositide-specific phospholipase C; experiment: Inhibition of Phosphoinositide-specific Phospholipase C; type: biochemical; details: procedure of Bennett et al, Molecular Pharmacology 32:587-593 (1987); read-out: PLC IC50
Text: Inhibition of Phosphoinositide-specific Phospholipase C
The effect of compounds of this invention on phosphoinositide-specific phospholipase C may be determined by procedures described by Bennett et al, Molecular Pharmacology 32:587-593 (1987).

[2] = molecular target: bee venom phospholipase A2 (Apis mellifera, UniProt P00630); experiment: biochemical; details: read-out: PLA2 IC50
bee venom phospholipase A2, sequence (P00630 34-167 limits assumed): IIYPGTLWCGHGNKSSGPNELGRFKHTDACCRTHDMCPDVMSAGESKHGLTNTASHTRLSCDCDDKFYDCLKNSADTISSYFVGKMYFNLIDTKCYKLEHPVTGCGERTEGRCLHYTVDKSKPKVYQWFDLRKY

| Structure (SMILES) | IC50 [1] [nM] | IC50 [2] [nM] |
| --- | --- | --- |
| CCCCCCCCCCCCC(OC(=O)CC(=O)OC(CCCCCCCCCCCC)C1=CC(=O)OC1O)C1=CC(=O)OC1O (centres unmarked) [Compound 1, Bis[1-(5-hydroxy-2(5H)-furano-4-yl)tridecyl]malonate] | 2000 | 20 |
| CCCCCCC(OC(=O)CC(=O)OC(CCCCCC)C1=CC(=O)OC1O)C1=CC(=O)OC1O (centres unmarked) [Compound 4, Di[(1-5-hydroxy-2(5H)2-oxo-4-furyl)heptyl]malonate] | – | 30 |
| CCCCCCCCCCCCC(OC(=O)CCCC(=O)OC(CCCCCCCCCCCC)C1=CC(=O)OC1O)C1=CC(=O)OC1O (centres unmarked) [Compound 2] | – | 30 |
| CC(=CCCC1=CCC(C2=CC(=O)OC2O)OC1O)CCC1=C(C)CCCC1(C)C (centres unmarked) [manoalide, Manoalide, reference compound] | 3000 | – |
